Key:
[1] = system: high fat+fructose (HF/HS) diet hamsters; test: FPLC cholesterol subpopulation traces of pooled hamster plasma; type: in vivo, male Golden Syrian hamsters; settings: ARI-001 2240 mg/kg 18 days, vs vehicle
Protocol: Fast protein liquid chromatography (FPLC) was used to separate the different cholesterol subpopulations from samples of hamster plasma. Briefly, plasma from each animal within a given cohort was pooled together and applied to an AKTA liquid handling system with a Superose 6 10/300 GL column (product #14-5172-01, GE Life Sciences). 250 μL of sample was applied to the injection system, diluted with 5 mL of buffer (100 mM Na2HPO4, 100 mM NaCl, pH 7.5), loaded onto the column, and eluted with 23.5 mL of buffer at a flow rate of 1.0 mL/min, into fractions of size 0.24 mL. Each fraction was individually measured for cholesterol concentration using the total cholesterol kit from Wako as described above with the following modification: sample volume was increased to 30 μL and the reagent volume was decreased to 60 μL.
FPLC traces produce continuous curves with three distinct peaks, representing each of the cholesterol subpopultions: VLDL, LDL, and HDL. Because the column used in this experiment is a size-exclusion column, the largest particles appear first, while the smallest appear last. […]
The measured HDL values were borderline significant (p=0.06) between the 2240 mg/kg ARI-001 group and vehicle. There was a considerable increase in significance when considering the calculated HDL/TC values. […]

[2] = Single-dose pharmacokinetic study PO/IP in wild type mice; type: in vivo, C57BL/6 mice; settings: for AUC / Cmax / Tmax / half-life: C57BL/6, mouse plasma
Protocol: Plasma from the 19 hamsters dosed with ARI-001 in the above described 18-day study was analyzed for concentrations of ARI-001. Concentrations were determined for these samples, which were collected 24 hours after the final dose was administered. Briefly, plasma drug concentrations for the non-GLP pharmacokinetic experiments were determined by LC-MS using an Applied Biosystems 4000Qtrap spectrometer with electrospray ionization. Samples were prepared for analysis by precipitation of plasma proteins with cold methanol. HPLC of the samples was done with an Agilent Eclipse C18 column and a methanol/water gradient containing 0.1% formic acid and 5 mM ammonium acetate. ARI-001 was detected using multiple reaction monitoring (MRM) in the positive ion mode. For quantitation, a standard curve was measured by addition of known amounts of ARI-001 to plasma from untreated animals and preparing in a manner identical to the samples from treated animals. All plasma samples were spiked with 10 ng/mL of isotope-enriched ARI-001 which served as an internal standard for the LC-MS measurements. All compound concentrations are reported in μM. For correlation analysis, plasma concentrations of ARI-001 in a given animal were paired with that same animal's lipid parameter. […] These correlations are graphed in FIG. 6 and FIG. 7. Pearson r values were determined using all data points, as was the two-tailed P-value for the data set.
Wild type C57BL/6 mice were dosed with a single administration of ARI-001 in solution either via oral gavage (PO) or via intraperitoneal injection (IP). Blood samples were then collected at various time points over a 24-hour period; plasma was then analyzed for concentrations of ARI-001 as described earlier. ARI-001 was administered at either a dose of 2240 mg/kg as a single bolus via oral gavage, or a dose of 448 mg/kg as a single bolus via intraperitoneal injection.

[3] = Pharmacokinetics of multiple administrations to fasted monkeys; type: in vivo, Macaque monkeys; settings: 288 mg/kg oral gavage once per day, seven days
Protocol: ARI-001 was administered to monkeys via oral gavage once per day for a total of seven days. Blood samples were collected after the first and after the last administrations to measure plasma concentrations of ARI-001.

[4] = system: dogs; test: Clinical symptoms of flushing over 28 days; type: in vivo
Excerpt: (§1) Additionally, clinical symptoms of “flushing” were not observed over 28 days in rats or dogs.

[5] = system: rats; test: Clinical symptoms of flushing over 28 days; type: in vivo
Excerpt: as §1

[6] = system: healthy adult volunteers; test: Human clinical trial, single escalating oral doses: triglycerides; type: in vivo; settings: preliminary, FIG. 22
Protocol: A randomized, double-blind, placebo-controlled study is performed with sequential escalating doses by cohort with observations for 30 hours post dosing and return visit on 8th day. Study subjects are healthy male and female adult volunteers, age 18-60 years, with LDL-C>130 mg/dL and weight <85 kg. Subjects are randomly assigned to receive study drug or placebo.
Five periods of single dose escalation, with 8 subjects per cohort (6 drug: 2 placebo) involve a total 40 subjects. Appropriately blinded matching placebos are provided. Cohort 1 receives 500 mg of ARI-001 formulated as a single oral tablet, plus eleven placebo tablets; Cohort 2, 1000 mg taken as two 500 mg tablets of ARI-001, plus ten placebo tablets; Cohort 3, 2000 mg taken as four 500 mg tablets of ARI-001, plus eight placebo tablets; Cohort 4, 4000 mg taken as eight 500 mg tablets of ARI-001, plus four placebo tablets; Corhort 5, 6000 mg taken as twelve 500 mg tablets of ARI-001. Placebo-only subjects take twelve placebo tablets. Each tablet is a compressed, film-coated tablet suitable for oral administration. […]

[7] = PO, 2240 mg/kg single bolus oral gavage

Structure (SMILES): O=C(O)c1ccc(CCN2CCOCC2)nc1 [ARI-001]
- FPLC HDL curve [1]: notably larger
- FPLC VLDL and LDL peaks [1]: considerably decreased compared to vehicle
- AUC ([2]; IP, 448 mg/kg single bolus): 439 µM·h
- Cmax ([2]; IP, 448 mg/kg single bolus): 450 µM
- Tmax ([2]; IP, 448 mg/kg single bolus): 15 min
- half-life ([2]; IP, 448 mg/kg single bolus): 30 min
- AUC [2, 7]: 1100 µM·h
- Cmax [2, 7]: 289 µM
- Tmax [2, 7]: 30 min
- half-life [2, 7]: 90 min
- remaining plasma concentration at the 24 hour timepoint ([2]; single dose PO 2240 mg/kg or IP 448 mg/kg): undetectable
- Cmax day 1 versus day 7 [3]: higher on day 7 than on day 1
- concentrations 24 hours after first or last dose [3]: essentially identical
- plasma concentrations day 1 versus day 7 [3]: very little difference
- clinical symptoms of flushing [4]: not observed
- clinical symptoms of flushing [5]: not observed
- change in triglycerides 4 hours after dosing [6]: dose response for triglyceride lowering

— patent publication US8937063B2 (Trustees of Tufts College, priority 2010, dated 2015)
